{"source": "patent US20230015823A1", "about": "“METHODS OF ADMINISTERING VOXELOTOR” (Global Blood Therapeutics, Inc., priority 2019, published 2023)", "experiment": "Phase 1 study of a single oral dose of voxelotor in subjects with hepatic impairment: whole blood and plasma PK", "format": "in vivo, human", "settings": "for Vd/F / half-life / Tmax / AUC(0-t) / AUC(0-inf) / Cmax: human, po; for Vd/F: read-out: Vz/F, GM (converted); for half-life: read-out: t1/2, mean (converted); for Tmax: read-out: tmax, median (converted); for AUC(0-inf): read-out: AUCinf, GM (converted); for Cmax: read-out: Cmax, GM (converted)", "procedure": "A Phase 1, open-label study was performed to characterize pharmacokinetics (PK) and safety of a single oral dose of voxelotor in subjects with hepatic impairment. The study was to assess the effects of mild, moderate, or severe hepatic impairment on the PK of a single oral dose of voxelotor, to evaluate the safety and tolerability of a single oral dose of voxelotor in subjects with mild, moderate, or severe hepatic impairment, as well as to establish potential dose adjustment guidance based upon the degree of hepatic insufficiency. […] This study was designed to assess the effects of mild, moderate, or severe hepatic impairment on the PK of a single oral dose of voxelotor. Routine safety assessments (AE monitoring, vital signs, physical examinations, clinical laboratory tests, and ECGs) were performed. Eligible subjects received a single oral dose of voxelotor 1500 mg (5×300-mg capsules) on Day 1 (for normal hepatic function, mild and moderate hepatic impairment). […] No food was allowed for at least 4 hours postdose. No water or any type of liquid was allowed for 1 hour before dosing through 1-hour postdose with the exception of water consumed for dosing. Adverse events and concomitant medication use were monitored throughout the study. Safety assessments, including physical examinations, vital signs assessments, 12-lead ECGs, and clinical laboratory tests, were performed. Whole blood and plasma concentrations of voxelotor were determined using validated assays. […] Louis, Mo.) and actual sampling times. The following PK parameters were determined. To assess the effect of hepatic impairment on the PK of voxelotor, a linear mixed-effect model was fitted to the log-transformed values of whole blood and plasma Cmax, AUCt, and AUCinf. The model included hepatic impairment group as a fixed effect and age and weight as covariates. Point estimates and 90% CIs for hepatic function group differences (mild, moderate, and severe hepatically-impaired subjects [test] versus the normal hepatic function subjects [control]) on the log scale were exponentiated to obtain estimates for GM ratios on the original scale. Voxelotor whole blood and plasma concentrations were measured using a validated liquid chromatography-mass spectrometry method. The lower limit of assay quantitation for voxelotor was 10.0 ng/mL for whole blood and 5.00 ng/mL in plasma.", "key": {"[1]": {"settings": "whole blood, 600 mg, whole blood, severe hepatic impairment, 600 mg single oral dose"}, "[2]": {"settings": "whole blood, 1500 mg, whole blood, mild hepatic impairment, 1500 mg single oral dose"}, "[3]": {"settings": "whole blood, 1500 mg, whole blood, moderate hepatic impairment, 1500 mg single oral dose"}, "[4]": {"settings": "whole blood, 1500 mg, whole blood, normal hepatic function, 1500 mg single oral dose"}, "[5]": {"settings": "plasma, Mild (Test) vs Normal (Ref)"}, "[6]": {"settings": "plasma, Moderate (Test) vs Normal (Ref)"}, "[7]": {"settings": "plasma, Severe (Test, adjusted for dose) vs Normal (Ref)"}, "[8]": {"settings": "severe hepatic impairment, Cmax adjusted for dose"}, "[9]": {"settings": "whole blood, Mild (Test) vs Normal (Ref)"}, "[10]": {"settings": "whole blood, Moderate (Test) vs Normal (Ref)"}, "[11]": {"settings": "whole blood, Severe (Test, adjusted for dose) vs Normal (Ref)"}}, "note": "Like-named read-outs stand apart in the source and are kept apart here."}
{"smiles": "CC(C)n1nccc1-c1ncccc1COc1cccc(O)c1C=O", "note": "[voxelotor, 2-hydroxy-6-((2-(1-isopropyl-1H-pyrazol-5-yl)pyridin-3-yl)methoxy)benzaldehyde]", "values": [{"measurement": "Vd/F", "setting": "[1]", "value": 17.6, "unit": "L"}, {"measurement": "half-life", "setting": "[1]", "value": 111, "unit": "h"}, {"measurement": "Tmax", "setting": "[1]", "value": 24, "unit": "h"}, {"measurement": "AUC(0-t)", "setting": "whole blood, 1500 mg, whole blood, mild hepatic impairment, 1500 mg single oral dose, read-out: AUC0-96, GM (converted)", "value": 5160, "unit": "µg·h/mL"}, {"measurement": "AUC(0-inf)", "setting": "[2]", "value": 8230, "unit": "µg·h/mL"}, {"measurement": "AUC(0-t)", "setting": "whole blood, 1500 mg, whole blood, mild hepatic impairment, 1500 mg single oral dose, read-out: AUCt, GM (converted)", "value": 8190, "unit": "µg·h/mL"}, {"measurement": "Cmax", "setting": "[2]", "value": 73.6, "unit": "µg/mL"}, {"measurement": "Vd/F", "setting": "[2]", "value": 15.8, "unit": "L"}, {"measurement": "half-life", "setting": "[2]", "value": 60.1, "unit": "h"}, {"measurement": "Tmax", "setting": "[2]", "value": 24, "unit": "h"}, {"measurement": "AUC(0-t)", "setting": "whole blood, 1500 mg, whole blood, moderate hepatic impairment, 1500 mg single oral dose, read-out: AUC0-96, GM (converted)", "value": 4660, "unit": "µg·h/mL"}, {"measurement": "AUC(0-inf)", "setting": "[3]", "value": 8360, "unit": "µg·h/mL"}, {"measurement": "AUC(0-t)", "setting": "whole blood, 1500 mg, whole blood, moderate hepatic impairment, 1500 mg single oral dose, read-out: AUCt, GM (converted)", "value": 8320, "unit": "µg·h/mL"}, {"measurement": "Cmax", "setting": "[3]", "value": 63.8, "unit": "µg/mL"}, {"measurement": "Vd/F", "setting": "[3]", "value": 20.6, "unit": "L"}, {"measurement": "half-life", "setting": "[3]", "value": 79.5, "unit": "h"}, {"measurement": "Tmax", "setting": "[3]", "value": 24, "unit": "h"}, {"measurement": "AUC(0-t)", "setting": "whole blood, 1500 mg, whole blood, normal hepatic function, 1500 mg single oral dose, read-out: AUC0-96, GM (converted)", "value": 4270, "unit": "µg·h/mL"}, {"measurement": "AUC(0-inf)", "setting": "[4]", "value": 6980, "unit": "µg·h/mL"}, {"measurement": "AUC(0-t)", "setting": "whole blood, 1500 mg, whole blood, normal hepatic function, 1500 mg single oral dose, read-out: AUCt, GM (converted)", "value": 6950, "unit": "µg·h/mL"}, {"measurement": "Cmax", "setting": "[4]", "value": 60.9, "unit": "µg/mL"}, {"measurement": "Vd/F", "setting": "[4]", "value": 19.6, "unit": "L"}, {"measurement": "Tmax", "setting": "[4]", "value": 24, "unit": "h"}, {"measurement": "plasma Cmax, higher than normal hepatic function", "setting": "mild hepatic impairment", "value": 18, "unit": "%"}, {"measurement": "whole blood Cmax, higher than normal hepatic function", "setting": "mild hepatic impairment", "value": 19, "unit": "%"}, {"measurement": "AUC in whole blood higher compared to normal hepatic function", "setting": "mild hepatic impairment (Child Pugh A)", "value": 14, "unit": "%"}, {"measurement": "plasma Cmax, higher than normal hepatic function", "setting": "moderate hepatic impairment", "value": 51, "unit": "%"}, {"measurement": "whole blood Cmax, higher than normal hepatic function", "setting": "moderate hepatic impairment", "value": 6, "unit": "%"}, {"measurement": "AUC in whole blood higher compared to normal hepatic function", "setting": "moderate hepatic impairment (Child Pugh B)", "value": 15, "unit": "%"}, {"measurement": "AUCinf, Ratio of Geometric LS Mean (Test to Reference)", "setting": "[5]", "value": 1.093}, {"measurement": "AUCt, Ratio of Geometric LS Mean (Test to Reference)", "setting": "[5]", "value": 1.089}, {"measurement": "Cmax, Ratio of Geometric LS Mean (Test to Reference)", "setting": "[5]", "value": 1.177}, {"measurement": "AUCinf, Ratio of Geometric LS Mean (Test to Reference)", "setting": "[6]", "value": 1.180}, {"measurement": "AUCt, Ratio of Geometric LS Mean (Test to Reference)", "setting": "[6]", "value": 1.207}, {"measurement": "Cmax, Ratio of Geometric LS Mean (Test to Reference)", "setting": "[6]", "value": 1.510}, {"measurement": "AUCinf, Ratio of Geometric LS Mean (Test to Reference)", "setting": "[7]", "value": 1.932}, {"measurement": "AUCt, Ratio of Geometric LS Mean (Test to Reference)", "setting": "[7]", "value": 1.907}, {"measurement": "Cmax, Ratio of Geometric LS Mean (Test to Reference)", "setting": "[7]", "value": 1.445}, {"measurement": "CL/F, GM", "setting": "plasma, mild hepatic impairment, 1500 mg single oral dose", "value": 76.69, "unit": "L/h"}, {"measurement": "CL/F, GM", "setting": "plasma, moderate hepatic impairment, 1500 mg single oral dose", "value": 56.14, "unit": "L/h"}, {"measurement": "CL/F, GM", "setting": "plasma, normal hepatic function, 1500 mg single oral dose", "value": 77.50, "unit": "L/h"}, {"measurement": "CL/F, GM", "setting": "plasma, severe hepatic impairment, 600 mg single oral dose", "value": 73.81, "unit": "L/h"}, {"measurement": "AUC in whole blood higher compared to normal hepatic function", "setting": "severe hepatic impairment (Child Pugh C)", "value": 90, "unit": "%"}, {"measurement": "plasma Cmax, higher than normal hepatic function", "setting": "[8]", "value": 45, "unit": "%"}, {"measurement": "whole blood Cmax, higher than normal hepatic function", "setting": "[8]", "value": 39, "unit": "%"}, {"measurement": "AUCinf, Ratio of Geometric LS Mean (Test to Reference)", "setting": "[9]", "value": 1.141}, {"measurement": "AUCt, Ratio of Geometric LS Mean (Test to Reference)", "setting": "[9]", "value": 1.140}, {"measurement": "Cmax, Ratio of Geometric LS Mean (Test to Reference)", "setting": "[9]", "value": 1.187}, {"measurement": "AUCinf, Ratio of Geometric LS Mean (Test to Reference)", "setting": "[10]", "value": 1.151}, {"measurement": "AUCt, Ratio of Geometric LS Mean (Test to Reference)", "setting": "[10]", "value": 1.149}, {"measurement": "Cmax, Ratio of Geometric LS Mean (Test to Reference)", "setting": "[10]", "value": 1.056}, {"measurement": "AUCinf, Ratio of Geometric LS Mean (Test to Reference)", "setting": "[11]", "value": 1.902}, {"measurement": "AUCt, Ratio of Geometric LS Mean (Test to Reference)", "setting": "[11]", "value": 1.867}, {"measurement": "Cmax, Ratio of Geometric LS Mean (Test to Reference)", "setting": "[11]", "value": 1.391}, {"measurement": "CL/F, GM", "setting": "whole blood, mild hepatic impairment, 1500 mg single oral dose", "value": 70.182, "unit": "L/h"}, {"measurement": "CL/F, GM", "setting": "whole blood, moderate hepatic impairment, 1500 mg single oral dose", "value": 60.179, "unit": "L/h"}, {"measurement": "CL/F, GM", "setting": "whole blood, normal hepatic function, 1500 mg single oral dose", "value": 70.215, "unit": "L/h"}, {"measurement": "CL/F, GM", "setting": "whole blood, severe hepatic impairment, 600 mg single oral dose", "value": 70.110, "unit": "L/h"}]}
